Test system: T. cruzi intracellular amastigotes in H9c2 cells
Experiment: Rate-of-Kill (RoK) high-content imaging assay, amastigotes per cell (AM/CELL) and curve descriptors
Format: cell-based, Trypanosoma cruzi
Set-up: key to ME_24h / ME_48h / ME_72h: % reduction in parasite burden (cidal response); t50pct_MCC50 / t50pct_Cmax: unit not given here
Details: for ME_24h: 24h; for ME_48h: 48h; for ME_72h: 72h; for tlag_Cmax / t50pct_Cmax / t50%_Cmax: at Cmax; for ME_24h (%): maximum effect at 24 h; for ME_24h (%) / ME_48h (%) / ME_72h (%): RoK assay; for ME_48h (%): maximum effect at 48 h; for ME_72h (%): maximum effect at 72 h; for ME 24h (maximum effect at 24 hours, intracellular amastigotes): maximum percentage of parasite burden reduction reached by any concentration
Experimental: For this high-content intracellular imaging assay, H9c2 cells were seeded in 225 cm^2 T- FLASK in DMEM with 10% FBS for 4 h to allow attachment. T. cruzi trypomastigotes, collected at days 5 to 8 after infection from LLC-MK2 parasite infected cultures, were allowed to swim out for 4 h at 37°C from a centrifuged pellet (1,600 x g / 10 min). Trypomastigotes were then collected and counted in a CASY Cell Counter using the 60 μm capillary. Trypomastigotes, in supplemented DMEM, were added to H9c2 cultures in a multiplicity of infection (MOI) of 8 and incubated for 18 h. Cells were washed once with PBS before incubation of the infected H9c2 monolayer with trypsin (Life-Technologies) to detach cells from the flask. Cells were counted in a CASY Cell Counter, using the 150 μm capillary, and their density set at 5 x 10^4 cells/mL in supplemented DMEM. Infected H9c2 were dispensed into 384-well plates at 50 μL per well using a Multidrop Combi dispenser. Control wells used to determine a 100% parasitic growth (full 6th column of each plate) were left untreated, whereas not infected cells were added in the control wells used as 0% parasite growth (or 100% parasite growth inhibition; full 18th column of each plate). The four plates corresponding to each RoK assay were predispensed for the same mother plate. […] Cultures were then fixed and stained with 50 μL per well of a PBS solution containing 4% formaldehyde and 2 μM DRAQ5 DNA dye (BioStatus, UK). Then plates were read in a PerkinElmer Opera Phenix using a 20x objective, 3 fields per well. DRAQ5 signal was detected using 640 nm excitation laser and a 690/50 nm emission detection filter. Automated image analysis was performed with a script developed on Acapella High Content Imaging and Analysis Software (PerkinElmer). Two outputs were provided for each sample well: (1) number of host cells nuclei to determine drug-related cytotoxicity (aka H9c2) and (2) number of amastigotes per cell as infection level measurement (aka AM/CELL). Each output is plotted as a time course for each compound at every concentration. This assay was adapted from Alonso-Padilla et al. and Peña et al..
To identify and classify the different compounds, the number of amastigotes per cell (AM/CELL) raw data obtained in rate of kill assay are normalised using the average of C1 (infected cells) at time 4 hours as 0% effect and the average of C2 (non-infected cells) for each time as 100% effect, according to the following Eq 1: %CIDALRESPONSE=100*[Avg_C14h-RawData]/[Avg_C14h-Avg_C2] (1)
• ME (Maximum Effect) is the maximum percentage of parasite burden reduction reached by any compound concentration. Compounds that decrease the initial parasite load will show a positive value of ME, whereas compounds that allow the progression of infection will render a negative ME value. […] It is calculated for the MCC50 (t50%_MCC50) and for the maximum concentration (t50%_Cmax). […] The value of this parameter is not either interpolated or extrapolated, and it refers to the first experimental time-course point at which a 50% of effect is reached or exceeded. • tlag defines the time elapsed for one particular concentration to reduce parasite burden between two consecutive points at any moment of the time course. It is calculated for the MCC50 (tlag_MCC50) and for the maximum concentration (tlag_Cmax). The value of this parameter is not either interpolated or extrapolated, and it refers to the first experimental time-course point of a positive slope in the normalised plot (i.e. %Cidal_Response). • Cmin_Tox (Minimal CytoToxic Concentration) is the lowest compound concentration that is reducing the number of host mammalian cells below 50% of initial cell density. Cytotoxic compounds may mislead a bona fide antiparasitic action.

SMILES | ME_24h (figure 5) | ME_48h (figure 5) | ME_72h (figure 5) | MCCE (RoK curve descriptor) | AM/CELL NORM (Time 4, sheet figure 4 A) | AM/CELL NORM (Time 24, sheet figure 4 A) | AM/CELL NORM (Time 48, sheet figure 4 A) | AM/CELL NORM (Time 72, sheet figure 4 A) | tlag_Cmax | t50pct_Cmax (figure 5) | tlag_Cmax (figure 5) | t50pct_MCC50 (at MCC50, figure 5) | tlag_MCC50 (at MCC50, figure 5) | MCC50 (figure 5) | MCCE (figure 5) | ME_24h (%) | ME_48h (%) | ME_72h (%) | ME 24h (maximum effect at 24 hours, intracellular amastigotes) | MCC50 (RoK curve descriptor) | further results
CCN(Cc1ccncc1)Cc1ccc(NC(=O)c2cc(-c3ccc(F)cc3)n[nH]2)cc1 [TCMDC-143433] | -248.551 | -140.579 | 30.4902 | 0.2 µM | 7.09 | -279.989 | -140.579 | 25.9601 | 24.0 h | 72 | 24 | 72 | 72 | 50 µM | 0.2058 | -248.6% | -140.6% | 30.5% | -248.551% | – | –
CN1CCCN(C(=O)c2ccc(N3CCCC3)cc2Cl)CC1 [TCMDC-143127] | -63.1294 | 41.4777 | 77.6777 | 1.9 µM | 3.238 | -70.995 | 17.9659 | 59.5367 | 24.0 h | 67.2 | 24 | 72 | 24 | – | 1.852 | -63.1% | 41.5% | 77.7% | -38.4049% | 7.0 µM | t50%_Cmax: 67.2 h; t50%_MCC50 (at MCC50): 72.0 h; tlag_MCC50 (at MCC50): 24.0 h; MCC50 (figure 5, in µM): 7.037
O=C(N1CCc2ccccc2CC1)C1(C(=O)N2CCC(n3c(=O)[nH]c4ncccc43)CC2)CC1.O=C(O)C(F)(F)F [TCMDC-143381] | -241.612 | -106.513 | 38.7809 | 1.9 µM | 8.613 | -274.305 | -155.332 | 34.067 | 24.0 h | 72 | 24 | 72 | 72 | 50 µM | 1.852 | -241.6% | -106.5% | 38.8% | -241.612% | – | –
CCOc1ccc(NC(=O)C=Cc2ccc(CC)o2)cc1 [TCMDC-143160] | -214.627 | -667.694 | -988.393 | 16.7 µM | – | – | – | – | 72.0 h | 72 | 72 | 72 | 72 | 50 µM | 16.6667 | -214.6% | -667.7% | -988.4% | 0.6973% | – | AM/CELL NORM (Time 4, figure 4 A): 1.332; AM/CELL NORM (Time 24, figure 4 A): -214.627; AM/CELL NORM (Time 48, figure 4 A): -667.694; AM/CELL NORM (Time 72, figure 4 A): -988.393
COc1ccccc1-c1c(C)[nH]c2nc(N)nc(C)c12 [TCMDC-143610] | 50.657 | 69.1206 | 72.4769 | 0.3 µM | 4.093 | 33.8882 | 64.2982 | 71.534 | 4.0 h | 54 | 4 | 48 | 4 | – | 0.3086 | 44.7% | 65.4% | 70.3% | 71.8108% | 2.4 µM | ME (maximum effect) in RoK assay (in words): high values in ME at the different times; tlag (in words): short tlag; t50%_Cmax: 48.0 h; t50%_MCC50 (at MCC50): 52.8 h; tlag_MCC50 (at MCC50): 4.0 h; MCC50 (figure 5, in µM): 1.543
COc1cccc(C(=O)[C@H]2C[C@@H]2CN(Cc2cccnc2)Cc2cccnc2)c1 [TCMDC-143593] | -243.773 | -91.7284 | 36.534 | 0.02 µM | -1.514 | -270.363 | -91.7284 | -0.04888 | 24.0 h | 72 | 24 | 72 | 72 | 50 µM | 0.02286 | -243.8% | -91.7% | 36.5% | -243.773% | – | –
O=C(Nc1ccc(Br)c(Cl)c1)Nc1ccc2c(c1)OCO2 [TCMDC-143588] | 4.143 | 11.8076 | -0.7061 | 5.6 µM | 16.6619 | 4.143 | 11.8076 | -47.3133 | 24.0 h | 72 | 24 | 72 | 72 | 50 µM | 5.556 | 4.1% | 11.8% | -0.7% | 4.143% | – | –
CCCCn1nnnc1CSc1nc(C)cc(C)c1C#N [TCMDC-143315] | 53.1743 | 83.3988 | 72.5932 | 0.2 µM | 13.5421 | 53.1743 | 83.3988 | 54.3555 | 4.0 h | 24 | 4 | 48 | 4 | – | 0.2058 | 53.2% | 83.4% | 72.6% | 53.1743% | 0.6 µM | t50%_Cmax: 24.0 h; t50%_MCC50 (at MCC50): 48.0 h; tlag_MCC50 (at MCC50): 4.0 h; MCC50 (figure 5, in µM): 0.6173
Cc1sc(C)c(C(F)(F)F)c1CNCCCNc1cc(=O)c2ccccc2[nH]1.Cl [TCMDC-140766] | 54.6006 | 64.1651 | 71.5778 | 0.6 µM | – | – | – | – | 4.0 h | 24 | 4 | 72 | 4 | – | 0.6173 | 54.6% | 64.2% | 71.6% | 58.2122% | 5.6 µM | ME (maximum effect) in RoK assay (in words): high ME at 24 hours and 72 hours; tlag (in words): short tlag times; AM/CELL NORM (Time 4, figure 4 A): 7.643; AM/CELL NORM (Time 24, figure 4 A): 58.2122; AM/CELL NORM (Time 48, figure 4 A): 67.454; AM/CELL NORM (Time 72, figure 4 A): 69.5653; t50%_Cmax: 24.0 h; t50%_MCC50 (at MCC50): 72.0 h; tlag_MCC50 (at MCC50): 4.0 h; MCC50 (figure 5, in µM): 5.556

— article PMC8318231, “Rate-of-Kill (RoK) assays to triage large compound sets for Chagas disease drug discovery: Application to GSK Chagas Box” (PLoS Neglected Tropical Diseases, 2021)
